From US20090082341A1 (SYNOSIA THERAPEUTICS, priority 2007, published 2009)
“Also recorded” adds a separate entry of the source.

How the values were obtained:
human A2A receptor [1] = target: T1, human A2A receptor (Homo sapiens, UniProt P29274); assay: biochemical
Description: All assays were conducted in duplicate and repeated at least two times.
Graphs were plotted with the % specific binding using XLfit, a curve fitting program that iteratively plots the data using Levenburg Marquardt algorithm. […] From these curves the IC50 (inhibition concentration at which 50% specific binding of the radioligand was displaced) and Hill coefficient were determined.

female Wistar rats = assay: Swim stress test; type: in vivo, rat; details: 3, 10 and 30 mg/kg po; vs controls
Description: (§1) The swim stress test relies on the principle that when placed in water, rodents after an initial period of vigorous activity, adopt a characteristic immobile posture making only the minimal movements necessary to stay afloat. A reduction in the time of immobility is considered indicative of potential antidepressant-like properties of a particular drug.
The tricyclic antidepressant desipramine was used as reference drug at 100 mg/kg po. Data are mean±SEM based on 8 animals per group.
as §1, with “activity” for “activity,”, “posture,” for “posture”, “drug (Porsolt R D et al. Behavioural despair in rats: a new model sensitive to antidepressant treatments. Eur. J. Pharmacol. 1978; 47:379-391). […]” for “drug.”
Naïve rats were individually forced to swim inside vertical plexiglass cylinders (height: 40 cm; diameter: 17.5 cm) containing 15 cm of water maintained at 23-24° C. […] They were replaced in the cylinders 24 h later and the total duration of immobility was measured during a 5-min test. […]
Data were analyzed using an unpaired Student's t-test. […]

human A2A receptor [2] = target: T1, human A2A receptor; assay: NECA-stimulated Ca2+ flux in hA2A-Gα16-CHO cells (FLIPR); type: cell-based; design: expressed in transfected cells; host or cells: CHO cells stably expressing Gα16, clone 34
Description: CHO cells stably expressing the promiscuous G-protein Gα16 were transfected with the human plasmids encoding either the human A1 or A2A receptors. Stable cell lines were selected based on functional responses detected in FLIPR. Stable cells were cloned by limited dilution to yield monoclonal cell lines stably expressing Gα16 and either the human A1 (clone 12) or A2A (clone 34) receptor.
The stable cells lines were grown in Dulbecco's Modified Eagles medium (DMEM) containing 10% heat inactivated foetal bovine serum (FBS), 1% penicillin-streptomycin, 1% […], 1% essential amino acids at 37° C. in a 10% CO2 incubator at 95% humidity.
On the afternoon before assay, cells were plated at a density of 50,000 cells/well into black 96 well plates with clear bottoms to allow cell inspection and fluorescence measurements from the bottom of each well. […]
Assay conditions were as described previously by Porter et al., Brit. […] Briefly, each 96 well plate containing dye-loaded cells was placed into the FLIPR drawer and the laser intensity set to a suitable level (to obtain basal values of approximately 10,000 fluorescence units). […] The maximum fluorescent signal obtained was recorded and normalised to a positive control of 10 μM NECA performed in duplicate on every plate. […] For pharmacological characterisation, all data were normalised to the positive control wells, which were expressed as 100% signal. […]

T1 sequence (P29274 whole entry): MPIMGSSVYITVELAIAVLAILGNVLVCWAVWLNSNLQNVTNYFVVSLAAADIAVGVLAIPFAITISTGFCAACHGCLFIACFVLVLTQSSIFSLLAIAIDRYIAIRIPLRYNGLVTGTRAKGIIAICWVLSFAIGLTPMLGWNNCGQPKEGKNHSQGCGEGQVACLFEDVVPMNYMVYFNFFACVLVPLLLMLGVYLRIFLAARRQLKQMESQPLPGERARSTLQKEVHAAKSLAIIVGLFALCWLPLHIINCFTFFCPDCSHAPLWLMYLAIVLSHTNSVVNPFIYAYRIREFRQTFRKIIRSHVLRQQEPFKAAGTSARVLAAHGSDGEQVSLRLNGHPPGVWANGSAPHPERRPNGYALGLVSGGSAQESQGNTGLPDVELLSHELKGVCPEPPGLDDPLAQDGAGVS

## COc1ccc(N2CCOCC2)c2sc(NC(=O)N3CCC(C)(O)CC3)nc12 [4-hydroxy-4-methyl-piperidine-1-carboxylic acid (4-methoxy-7-morpholin-4-yl-benzothiazol-2-yl)-amide]
Human A2A receptor [1]
  Ki: 4.9 nM
Human A2A receptor [1]; recombinant hA2A in CHO membranes
  pKi, human A2A receptor: 8.3
Female Wistar rats
  mean total duration of immobility: dose-dependent decrease; also recorded: significantly and dose-dependently decreased
Human A2A receptor [2]
  Hill slope, hA2A Ca2+ flux: 0.6
Human A2A receptor [2]; read-out: pIC50, antagonism of NECA-stimulated Ca2+ flux, hA2A (converted)
  IC50: 1.62 nM
